Data as given in EPA's ToxValDB 9.5 (doi:10.2903/j.efsa.2017.4978).

Columns and labels:
Tagia sp. = settings: chronic/long-term; duration: 56 days; reproduction
Folsomia candida = settings: chronic/long-term; duration: 28 days; reproduction
Hypoaspis aculeifer = settings: chronic/long-term; duration: 14 days; reproduction
Mus musculus = settings: acute; mortality
Aphidius rhopalosiphi = assay: LR50; higher = less toxic; settings: not reported; mortality
Apis mellifera = settings: acute, mortality
Canidae = settings: oral, Dog Other, organ weight
Daphnia magna = settings: chronic/long-term; duration: 21 days; reproduction
Anas platyrhynchos = settings: reproductive
Cyprinodon variegatus = settings: acute; duration: 96 hours; mortality
Pimephales promelas = settings: chronic/long-term; duration: 262 days; growth
[1] = chronic
Bibionidae = settings: chronic/long-term; duration: 28 days
Colinus virginianus = settings: oral

Row | Structure (SMILES) | NOEC (Tagia sp.) [mg/kg] | NOEC (Folsomia candida) [mg/kg] | NOEC (Hypoaspis aculeifer) [mg/kg] | LD50 (Mus musculus) [mg/kg] | LR50 (Aphidius rhopalosiphi) [g/ha] | LD50 (Apis mellifera; duration: 48 hours, dermal) [µg/piece] | LD50 (Apis mellifera; duration: 72 hours, oral, unspecified) [µg/piece] | NOAEL (Canidae; chronic, duration: 1 years) [mg/kg-day] | NOAEL (Canidae; short-term, duration: 2 weeks) [mg/kg-day] | NOEC (Daphnia magna) [mg/L] | NOEL (Anas platyrhynchos) [mg/kg-day] | LC50 (Cyprinodon variegatus) [µg/mL] | LD50 (Rattus norvegicus; acute, oral, mortality) [mg/kg] | NOAEL (Rattus norvegicus; chronic, duration: 2 years, organ weight) [mg/kg-day] | NOAEL (Rattus norvegicus; reproduction developmental, M, body weight) [mg/kg-day] | NOEC (Pimephales promelas) [mg/L] | NOEC [1] [mg/L] | NOEC (Bibionidae) [mg/L] | LD50 (Colinus virginianus; acute, mortality) [mg/kg-day] | NOEC (Colinus virginianus; reproduction developmental, diet) [mg/kg-day]
1 | COc1cccc(C(=O)NN(C(=O)c2cc(C)cc(C(=O)O)c2)C(C)(C)C)c1C | 20 | 20 | 1000 | – | – | – | – | – | – | – | – | – | – | – | – | – | – | – | – | –
2 | Cc1cc(C)cc(C(=O)N(NC(=O)c2cccc(O)c2C)C(C)(C)C)c1 | – | – | – | > 5000 | – | – | – | – | – | – | – | – | – | – | – | – | – | – | – | –
3 | COc1cccc(C(=O)NN(C(=O)c2cc(C)cc(C)c2)C(C)(C)C)c1C [Methoxyfenozide] | 2.04 | 20.5 | – | > 5000 | > 192 | > 100 | > 2000 | 9.8 | 18 | 0.39 | 138 | > 2.8 | > 5000 | 10.2 | 153 | 0.53 | 0.01 | 0.0065 | > 2250 | > 82.7
